What all share (assay type): cell-based
Assay [1] deals with B. subtilis NO-347 (BD170 thrC::Pspac-murA kanR ΔmurA::CmR). Kind of assay: MIC by microbroth dilution in B. subtilis under-expressing murA. To be noted: IPTG 0-0.1 mM, compared to the control strain, FIG. 10. The method, then: Materials and Methods. The materials are the same as discussed above. Plasmids are listed in Table 4 B. subtilis strains were routinely grown in LB media or on LB agar plates containing 1.5% agar (Sambrook et al., MOLECULAR CLONING: A LABORATORY MANUAL, 2nd ed., Cold Spring Harbor Laboratory Press, 1989). MIC determination is performed using microbroth dilution-cultures grown in Mueller Hinton broth in 96-well microtiter plates purchased from Nunc (Plates—Cat. No. 262162; Lids—Cat. No. 264122). When required, media were supplemented with 5 μg/ml chloramphenicol or 10 μg/ml kanamycin. IPTG was added to culture media at a final concentration of 0.05 mM for routine culture growth of B. subtilis NO-347 (BDI70 thrC::Pspac-murA kan^R ΔmurA::Cm^R), which is dependent on IPTG for growth.
The endogenous murA gene in NO-360 was deleted by allelic replacement as follows (see FIG. 9). DNA fragments flanking the 5′ and 3′ ends of the murA gene were amplified from B. subtilis 168 genomic DNA using primer pairs KO mura F1+R2 and KO murA F2+R1, respectively. The 5′ and 3′ flanking fragments were linked to the Cm^R gene from pEVP3 using the cross-over PCR technique with the primer pair KO mura F1+R1. The resulting PCR product (shown in FIG. 9B) was used to transform naturally competent B. subtilis NO-360. Cm^R clones were selected in the presence of 0.01 mM and 0.05 mM IPTG. Allelic replacement of murA in Cm^R clones was verified by PCR. Strain NO-347 (BD170 thrC::Pspac-murA Kan^R ΔmurA::Cm^R) was chosen for MIC determinations for phosphomycin in presence of various concentrations of the regulator IPTG.
MIC determinations. Determination of minimum inhibitory concentration (MIC) for phosphomycin, novobiocin, erythromycin and trimethoprim lactate were performed in 96-well microliter plates using the microbroth dilution technique as described in NCCLS. 1997. Methods for dilution antimicrobial susceptibility tests for bacteria that grow aerobically-fourth edition; approved standard. NCCLS document M7-A4. NCCLS, Wayne, Pa. For MIC determinations using strain NO-347, various concentrations (0-0.1 mM) were added to the media. Growth was quantitated by OD600 measurements using a SpectroMax 250 plate reader (Molecular Devices).

A further assay has as its system E. coli strain WO-153. The assay can be described thus: Genome-wide E. coli ORFmer overexpression rescue (OER) assay. The protocol:
Over expression Rescue Assays. Over expression assays were conducted with the E. coli strain WO-153 described in Table 7. Construction of WO-0153. […] The asmB1 mutation is a G to A transition at position 628 in the 1pxC gene. […] The tolC gene encodes an outer membrane protein that acts as a channel for the acrAB efflux pumps (See for example, Fralick, J. 1996. J. Bacteriol. 178:5801-5805). […] WO-0153 was constructed as follows. The asmB1 mutation was introduced into a DNA fragment containing the 1pxC gene and 1 kb of the 5′ end of the secA gene by site directed mutagenesis of the 1pxC gene using standard methods. A kan^R resistance cassette flanked by FRT sites was introduced 60 bp downstream of the 1pxC gene. The linear DNA construct was introduced into electrocompetent and recombinogenic E. coli KM354 (pTP223) as described by Murphy (See for example, Murphy, 1998, J. Bacteriol. 180: 2063-71). Transformants were selected on LB agar containing kanamycin (35 mcg/ml) and screened for sensitivity to novobiocin (20 mcg/ml). The presence of the asmB1 mutation in clones with the expected phenotype was verified by DNA sequence analysis. The kanR gene flanked by FRT sites was then excised from the 1pxC-secA intergenic region using a previously described method (See for example, Cherepanove, P. P, and Wackernagel, W. 1995. Gene 158: 9-14.). […] 178:5138-5143; Fralick, J. (1996). J. Bacteriol. 178:5801-5805; Fralick, J. A., et al. (1994) J. Bacteriol. 176:6404-6406; and Cherepanove, P. P, et al., (1995) Gene 158:9-14. […] Plasmid library DNA was transformed into WO-153 by electroporation as described above. Cells were collected from transformation plates by scraping and were equalized to an optical density of 1.53 on a Beckman DU650 spectrophotometer([…]). Groups of five libraries were mixed and frozen in LB media plus 10% (vol/vol) glycerol by immersion in a dry-ice/ethanol bath for 5 minutes.
Over-expression assays were performed in liquid media in a microtiter format, in a gradient plate format, or in a disk-diffusion format. The protocol used for the microtiter format was similar to the protocol described above for the MIC assay. Aliquots of 5 library pools spanning the genome were thawed at room temperature and 200 ul of each was inoculated into its own 20 ml of Mueller Hinton media containing ampicillin at 200 ug/ml and anhydrous tetracycline inducer as appropriate. Typically, replicates were performed using a number of final inducer concentrations, ranging from 0 to 100 ng/ml. Following an adequate mixing, 50 ul of inoculated media was mixed with 50 ul of the test antibiotic in Nunc brand 96-well microtiterplates. Typically, each group of five libraries was mixed with a range of concentrations of antibiotic spanning the minimum inhibitory concentration (MIC) of the antibiotic. […] Columns may contain 10 different groups of libraries as well as null vector and no innoculum controls. After mixing inoculum plus media with antibiotic, well contents were mixed by pipetting and incubated at 37° C. for 16 to 20 hours. Optical density at 600 nm was measured using a Molecular Devices SpectraMAX 250 spectrophotometer. […] Contents of wells showing rescue were transferred to LB agar plates containing ampicillin at 100 ug/ml, and were spread to obtain single colonies. Alternately, it is possible to maintain selection for the antibiotic being assayed by including it in the agar plates at this point.
OER Assay using Disk diffusion and Gradient Plate Assay formats. In the Disk diffusion plate format, the 3 inocula (see below) were plated on MHB plates containing ampicillin (100 mcg/ml) and anhydrous tetracycline (a-tet, 100 ng/ml). Two paper disks (6 mm diameter) containing 10×and 20×MIC of the test antiobiotic were placed on the surface of the plate.

The subject of assay [2] is cells in which folA is regulated by PBAD, PLtetO-1, or Plac/ara-1. The assay can be described thus: MIC by microbroth dilution in E. coli under-expressing folA. To be noted: FIG. 5. The protocol:
In another example, the wild-type native folA gene was knocked out, and a wild-type copy of the gene folA, which encodes the protein dihydrofolate reductase, was placed under ectopic expression in the yibD locus under regulation by PBAD with the regulator, L-arabinose. Dihydropteroate synthetase, the gene product of […], catalyzes the enzymatic reaction two steps before dihydrofolate reductase in the folate biosynthetic pathway.
(§1) Methods. […] IPTG was added to a final concentration of 0.1 mM and anhydrous-tetracycline was added to a final concentration of 100 ng/ml to the culture media for routine growth of GTC-EC#313 and GTC-EC#346, respectively.
(§2) The specificity and sensitivity of the resultant colonies to added drugs were followed by measuring the minimal inhibitory concentration (MIC) of trimethoprim, sulfamethozasone, phosphomycin and D-cycloserine at varying regulator levels. This was performed according to NCCLS (National Center for Clinical Laboratory Standards) recommendations(NCCLS, 1997, METHODS FOR DILUTION ANTIMICROBIAL SUSCEPTIBILITY TESTS FOR BACTERIA THAT GROW AEROBICALLY, 4th ed.; approved standard. NCCLS document M7-A4. NCCLS, Wayne, Pa.), in 100 μl volume in 96-well format, with serial two-fold dilutions of drug concentration.
A general note: In broth dilution the organism is exposed to a series of concentrations in liquid medium.

The subject of assay [3] is cells in which murA is regulated by PBAD. The assay can be described thus: MIC by microbroth dilution in E. coli under-expressing murA. To be noted: FIG. 6. The method, then: The wild-type gene murA, which encodes the enzyme UDP-N-acetylglucosamine enolpyruvate transferase, was knocked out in E. coli, and the gene was placed under ectopic expression in the yibD locus under regulation by PBAD with the regulator, L-arabinose.
as §1, §2

Each structure is given as a SMILES string.

Turning to `CC[C@H]1OC(=O)[C@H](C)[C@@H](O[C@H]2C[C@@](C)(OC)[C@@H](O)[C@H](C)O2)[C@H](C)[C@@H](O[C@@H]2O[C@H](C)C[C@H](N(C)C)[C@H]2O)[C@](C)(O)C[C@@H](C)C(=O)[C@H](C)[C@@H](O)[C@]1(C)O` [erythromycin], the “sensitivity (MIC) on regulated under-expression of murA” value in assay [1] was “does not affect sensitivity”.

In the case of `CO[C@@H]1[C@@H](OC(N)=O)[C@@H](O)[C@H](Oc2ccc3c(O)c(NC(=O)c4ccc(O)c(CC=C(C)C)c4)c(=O)oc3c2C)OC1(C)C` [novobiocin], the “sensitivity (MIC) on regulated under-expression of murA” value in assay [1] is on record as “does not affect sensitivity”.

As for `Oc1cc(Cl)ccc1Oc1ccc(Cl)cc1Cl` [triclosan], in the assay with E. coli strain WO-153 (liquid microtiter assay, expected targets folA, murA, fabI), the “PCR verification of OER clones: expected target gene” value was “expected target gene was identifed”. Also, the “PCR verification of OER clones: expected clone” value in the assay with E. coli strain WO-153 (two plate assay format (disk diffusion, gradient plate)) is “expected clone was isolated”.

For the compound `Cc1cc(NS(=O)(=O)c2ccc(N)cc2)no1` [sulfamethozasone], the “MIC with decreasing regulator (L-arabinose) level” value in assay [2] is recorded as “decreases”.

Turning to `N[C@@H]1CONC1=O` [D-cycloserine], in assay [3], the “sensitivity on under-expression of murA” value is “hypersensitivity”. Also, the “identity of OER clones that were not the expected gene, by sequence analyses” value with E. coli strain WO-153 is “closely related ddlB gene”. For the same compound, the “OER clones that were not the expected ddlA gene” value in the assay on E. coli strain WO-153 (PCR verification of OER clones) came out at 80%.
